According to PMC6891772 (Marine Drugs, 2019):

Target: T1, arylamine-N-acetyltransferase (TBNAT) (Mycobacterium tuberculosis, UniProt P9WJI5)
T1 construct: gene nat
T1 sequence (P9WJI5 1-283): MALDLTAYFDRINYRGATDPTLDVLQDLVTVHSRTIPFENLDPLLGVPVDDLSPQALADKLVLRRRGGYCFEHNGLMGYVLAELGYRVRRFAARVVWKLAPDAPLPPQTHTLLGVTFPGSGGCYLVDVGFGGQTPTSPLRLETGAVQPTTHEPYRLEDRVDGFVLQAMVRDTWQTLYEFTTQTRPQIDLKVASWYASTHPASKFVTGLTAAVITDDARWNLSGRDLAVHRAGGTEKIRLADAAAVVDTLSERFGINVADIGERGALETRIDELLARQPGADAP
Test: biochemical

CC(=O)O[C@H]1CC(C)(C)C(=C=C/C(C)=C/C=C/C(C)=C/C=C/C=C(C)/C=C/C=C(\C)C(=O)C[C@@]23O[C@]2(C)C[C@@H](O)CC3(C)C)[C@](C)(O)C1 [fucoxanthin]
IC50: 4.8 ± 0.4 µM

NNC(=O)c1ccncc1 [isoniazid]
IC50: 5.9 ± 0.2 µM
